Test results reported in US12486270B2, “Receptor tyrosine kinase inhibitors for treatment of protein kinase modulation-responsive disease or disorder” (THE UNITED STATES OF AMERICA, as represented by the …, priority 2019, dated 2025).

Assays:
EphB4 = EphB4 (Homo sapiens (Human), UniProt P54760); test: Endogenous EphB4 tyrosine phosphorylation by ELISA in HT29 cell lysates; assay type: cell-based
Description: (§1) ELISA. ELISA plates (ThermoFisher Scientific, Immulon 4HBX, 3855) were coated overnight at 4° C. with capture antibody 75 ng/well in PBS, and blocked with 5% BSA (Sigma-Aldrich, St. Louis, MO) in PBS for two hours at room temperature. Capture antibodies for EphB4 was goat polyclonal antibody (R&D Systems AF3038); for EphA2 was goat polyclonal antibody (R&D Systems AF3035); 10 ug of cell lysate was applied to the ELISA well for two hours at room temperature. The amount of tyrosine phosphorylation was measured with pTyr-HRP antibody (R&D Systems, HAM1676). The ELISA was developed with 3,3′,5,5′-Tetramethylbenzidine (TMB) (ThermoFisher Scientific, 7588927) for 15 minutes and stopped with 1M H2SO4 (Sigma-Aldrich, 258105). Absorbance at 450 nm was measured using POLARstar Optima plate reader (BMG Labtech, Cary, NC). All conditions were tested in duplicate. pEphB2 was measured by ELISA (Ray Biotech, PEL-EphB2-Y) according to the manufacturer's recommendations.

MG63 = MG63 proliferation (specificity control); assay type: cell-based, human; settings: 125-2000 nM
EphA2 [1] = biological target: T1, EphA2 (Homo sapiens (Human), UniProt P29317); test: Endogenous EphA2 tyrosine phosphorylation by ELISA in RKO cell lysates; assay type: cell-based
Description: as §1

EphB2 = EphB2 (Homo sapiens (Human), UniProt P29323); test: Endogenous EphB2 tyrosine phosphorylation by ELISA in Colo-205 cell lysates; assay type: cell-based
Description: as §1

EphA2 [2] = biological target: T1, EphA2; test: Binding affinity to EphA2 by microscale thermophoresis (MST); settings: towards EphA2
Source text: The binding affinities of the compounds to EphA2 were investigated by microscale thermophoresis (MST) (M. Jerabek-Willemsen et al., J. Mol. Struct. 2014, 1077, 101-113).

HUVEC = HUVEC proliferation (specificity control); assay type: cell-based, human; settings: 125-2000 nM
LC3 = LC3 autophagic puncta imaging in HT-29 cells transduced with fluorescent LC3; assay type: cell-based, human; settings: 72 hours
Description: Autophagy-related cell death was assessed by evaluation of LC3 autophagy-associated protein. The cells were first induced to stably express fluorescent pK (pHluorin-mKate2) LC3 by lentiviral infection. The cells were subsequently grown on glass coverslips (ThermoFisher, 12-545-81) until 50% confluent. Coverslips were washed with PBS −/−, fixed with 4% PEA for 15 minutes at room temperature, washed with TBS, mounted with DAPI-containing mounting media, allowed to harden overnight and sealed. Coverslips were imaged on a confocal Zeiss 780 microscope. Images were analyzed by CellProfiler using automatic thresholding to calculate the number of nuclei (DAPI staining) and the number of puncta. The results are expressed as the percent cells with two or more puncta. […] Monolayer cell confluency overtime was measured by IncuCyte HD (Essen BioSciences) imaging.
Immunostaining and microscopy. […] Maximum intensity projections (Zen Software 2.3 Blue Edition; Carl Zeiss) were used for quantification using CellProfiler software (Kamentsky et al., Bioinformatics 2011, 27:1179-1180) with automatic thresholding. Integrated intensity of CD31 was measured. The percent Ki-67 positive cells was measured by calculating the number of Ki-67 positive cells/total number DAPI^+ nuclei. The area of cleaved Caspase-3 positive area/total area was calculated by CellProfiler with automatic threshold. […]

LC3B = LC3B autophagy marker by immunoblotting in HT-29 cells; assay type: cell-based, human; settings: 72-hour incubation
Description: Western blotting. Protein lysates were separated by SDS-PAGE and then transferred to a nitrocellulose membrane. After blocking, membranes were incubated overnight with antibodies to LC3 (rabbit Monoclonal antibody, Cell Signaling).

[3] = tested on: SW620 colorectal cancer cell; test: Cell death by flow cytometry after DRAQ5/PI staining, colorectal cancer cells (SW620); assay type: cell-based, human; settings: 72 hours
Description: Cell viability was measured by flow cytometry. Briefly, floating and adherent cells were collected by centrifugation, pelleted and suspended in PBS −/− (ThermoFisher, 10010-049) supplemented with 1% BSA (Sigma, A2153), 5 mM EDTA (Qualify Biological, 351-027), 10 mM glucose (Sigma, D9434) and 10 mM HEPES (Corning, 25-060-CI). After the cells (1×10^6 cells/mL) were stained with 25 μM DRAQ5 (BioLegend, San Diego, CA; 424101) for 60 minutes and 2 μg propidium iodide (ThermoFisher, P3566) for 15 minutes, analysis was performed on a FACSCantoll (BD Biosciences, Franklin Lakes, NJ; 338962). Results were analyzed by FloJo software (FlowJo LLC, Ashland, OR).

SW620 cells = test: Cleaved caspase-3 immunofluorescence microscopy in colorectal cancer cells (SW620); assay type: cell-based, human; settings: 72 hours
Description: Cell viability was also measured by detection of cell-associated cleaved caspase-3. Cells were grown on gelatin-coated glass chamber slides, fixed in 4% paraformaldehyde, immune-stained with rabbit monoclonal antibody to cleaved Caspase 3 (1:100 Cell Signaling Technology) followed by Alexa Fluor 488-conjugated anti-rabbit IgG (1:400 Invitrogen) and mounted with Vectastain containing DAPI (Vector Laboratories). The slides were imaged through a Zeiss LSM780 confocal microscope. Image quantification (cleaved Caspase-3^+ nucleiltotal nuclei) was performed by CellProfiler software.

SW620 = test: Cell cycle analysis by flow cytometry in colorectal cancer cells (SW620); assay type: cell-based, human; settings: 72 hours; compared to control and NVP/NVP-Iso
Description: Cell cycle was assessed by flow cytometry. Adherent cells were harvested, washed with PBS and fixed for 30 minutes in cold 70% ethanol at 4° C. Cells were washed twice with PBS, treated with 2.5 μg/mL RNaseA (ThermoFisher, 12091039) for 30 minutes at room temperature, and then stained with 10 μg propidium iodide for 15 minutes prior to analysis performed on FACS Canton (BD Biosciences; San Jose, CA) and cell cycled analyzed (FloJo software).

T1 sequence (P29317 24-976): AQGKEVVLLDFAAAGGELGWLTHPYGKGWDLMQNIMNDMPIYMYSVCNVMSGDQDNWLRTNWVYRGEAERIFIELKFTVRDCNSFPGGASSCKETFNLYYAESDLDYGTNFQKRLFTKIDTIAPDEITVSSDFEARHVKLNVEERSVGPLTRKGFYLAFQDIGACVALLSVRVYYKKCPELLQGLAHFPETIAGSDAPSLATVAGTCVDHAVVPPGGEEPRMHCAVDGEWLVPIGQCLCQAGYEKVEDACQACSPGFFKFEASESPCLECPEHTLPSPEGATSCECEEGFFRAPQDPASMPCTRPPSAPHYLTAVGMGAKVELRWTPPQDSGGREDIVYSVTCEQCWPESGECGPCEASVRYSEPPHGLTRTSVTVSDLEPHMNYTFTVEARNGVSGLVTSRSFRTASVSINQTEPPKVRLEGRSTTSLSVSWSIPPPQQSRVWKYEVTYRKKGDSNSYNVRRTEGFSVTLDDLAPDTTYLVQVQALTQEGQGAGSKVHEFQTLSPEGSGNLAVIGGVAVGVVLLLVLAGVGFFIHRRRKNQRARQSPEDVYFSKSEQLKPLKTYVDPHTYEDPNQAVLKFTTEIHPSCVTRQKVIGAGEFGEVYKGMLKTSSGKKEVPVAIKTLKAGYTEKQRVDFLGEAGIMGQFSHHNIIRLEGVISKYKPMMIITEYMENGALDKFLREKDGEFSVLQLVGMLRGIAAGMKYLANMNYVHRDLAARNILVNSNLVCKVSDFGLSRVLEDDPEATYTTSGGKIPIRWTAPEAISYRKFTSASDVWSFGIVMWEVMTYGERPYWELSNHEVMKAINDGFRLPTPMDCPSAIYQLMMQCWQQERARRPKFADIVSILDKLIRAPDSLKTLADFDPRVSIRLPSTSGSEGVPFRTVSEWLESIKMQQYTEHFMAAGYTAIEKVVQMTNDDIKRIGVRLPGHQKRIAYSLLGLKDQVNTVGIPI
EphB2, sequence (P29323 19-1055): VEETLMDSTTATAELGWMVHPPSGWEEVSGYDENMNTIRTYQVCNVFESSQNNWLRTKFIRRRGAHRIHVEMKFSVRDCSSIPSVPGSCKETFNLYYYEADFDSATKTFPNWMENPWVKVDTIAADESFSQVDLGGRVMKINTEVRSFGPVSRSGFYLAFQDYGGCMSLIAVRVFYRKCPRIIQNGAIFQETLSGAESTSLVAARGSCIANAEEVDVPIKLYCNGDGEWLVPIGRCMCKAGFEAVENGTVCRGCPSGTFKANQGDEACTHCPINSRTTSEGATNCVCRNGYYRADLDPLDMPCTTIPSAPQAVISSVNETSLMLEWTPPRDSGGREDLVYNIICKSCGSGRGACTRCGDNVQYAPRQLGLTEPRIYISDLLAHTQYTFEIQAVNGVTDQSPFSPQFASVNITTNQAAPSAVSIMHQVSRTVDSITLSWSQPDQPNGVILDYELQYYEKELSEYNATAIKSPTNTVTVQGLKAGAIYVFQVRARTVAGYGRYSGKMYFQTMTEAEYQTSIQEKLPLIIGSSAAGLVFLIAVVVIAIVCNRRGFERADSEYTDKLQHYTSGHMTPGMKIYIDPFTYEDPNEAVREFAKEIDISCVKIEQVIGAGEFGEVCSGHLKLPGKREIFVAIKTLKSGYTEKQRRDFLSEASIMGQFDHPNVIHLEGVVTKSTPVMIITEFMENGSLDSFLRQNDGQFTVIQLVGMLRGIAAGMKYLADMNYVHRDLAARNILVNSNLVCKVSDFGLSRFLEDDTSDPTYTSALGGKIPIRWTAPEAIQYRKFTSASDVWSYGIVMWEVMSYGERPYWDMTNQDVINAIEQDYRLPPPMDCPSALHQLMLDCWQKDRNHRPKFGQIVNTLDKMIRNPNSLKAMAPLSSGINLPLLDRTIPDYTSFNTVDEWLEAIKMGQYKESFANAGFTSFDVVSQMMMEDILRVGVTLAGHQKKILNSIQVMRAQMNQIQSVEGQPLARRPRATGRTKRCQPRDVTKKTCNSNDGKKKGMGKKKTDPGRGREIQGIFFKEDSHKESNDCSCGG
EphB4, sequence (P54760 16-987): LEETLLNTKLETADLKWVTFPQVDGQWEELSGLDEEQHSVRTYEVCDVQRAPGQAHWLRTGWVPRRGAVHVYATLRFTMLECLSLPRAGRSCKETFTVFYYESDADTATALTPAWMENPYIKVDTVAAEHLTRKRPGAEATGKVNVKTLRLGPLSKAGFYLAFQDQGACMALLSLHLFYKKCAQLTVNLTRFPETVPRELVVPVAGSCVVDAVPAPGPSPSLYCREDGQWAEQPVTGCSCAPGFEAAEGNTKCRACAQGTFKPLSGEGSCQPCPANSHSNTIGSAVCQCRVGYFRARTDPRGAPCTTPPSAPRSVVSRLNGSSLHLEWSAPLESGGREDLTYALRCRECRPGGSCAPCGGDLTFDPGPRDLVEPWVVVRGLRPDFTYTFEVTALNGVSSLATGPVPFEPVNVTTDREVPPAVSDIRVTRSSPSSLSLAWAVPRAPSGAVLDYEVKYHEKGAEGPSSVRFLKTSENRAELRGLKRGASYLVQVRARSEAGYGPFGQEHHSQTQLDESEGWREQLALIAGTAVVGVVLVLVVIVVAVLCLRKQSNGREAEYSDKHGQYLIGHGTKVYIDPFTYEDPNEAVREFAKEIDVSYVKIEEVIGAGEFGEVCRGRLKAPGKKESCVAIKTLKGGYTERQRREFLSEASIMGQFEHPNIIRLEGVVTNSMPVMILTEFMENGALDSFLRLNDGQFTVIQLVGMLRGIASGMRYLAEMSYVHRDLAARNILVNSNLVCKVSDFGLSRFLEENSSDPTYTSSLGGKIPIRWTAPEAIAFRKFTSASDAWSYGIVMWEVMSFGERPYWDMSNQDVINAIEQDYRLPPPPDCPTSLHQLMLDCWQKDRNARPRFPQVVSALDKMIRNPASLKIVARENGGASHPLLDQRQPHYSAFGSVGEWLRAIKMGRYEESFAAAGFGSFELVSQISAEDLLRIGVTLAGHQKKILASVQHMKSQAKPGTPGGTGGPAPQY

SMILES: Cc1ccc(C(=O)Nc2cccc(C(F)(F)F)c2)cc1Nc1nc(N2CCOCC2)nc(-n2ccnc2)n1 [@10, 3-((4-(1H-imidazol-1-yl)-6-morpholino-1,3,5-triazin-2-yl)amino)-4-methyl-N-(3-(trifluoromethyl)phenyl)benzamide]
- reduction of EphB4 phosphorylation (EphB4; at 2 μM): marginal reduction
- reduction of MG63 cell proliferation (MG63): moderately inhibitory
- reduction of EphA2 phosphorylation (EphA2 [1]; at 2 μM): marginal reduction
- reduction of EphB2 phosphorylation (EphB2; at 2 μM): marginal reduction
- Kd (EphA2 [2]): 191 nM
- reduction of HUVECs proliferation (HUVEC): moderately inhibitory
- LC3-related autophagy puncta (LC3): also induced LC3B-related puncta

SMILES: Cc1ccc(C(=O)Nc2cccc(C(F)(F)F)c2)cc1Nc1nc(-c2cnccn2)nc2c1cnn2C [@1, 4-Methyl-3-((1-methyl-6-(pyrazin-2-yl)-1H-pyrazolo[3,4-d]pyrimidin-4-yl)amino)-N-(3-(trifluoromethyl)phenyl)benzamide]
- induction of autophagosome marker LC3B (immunoblotting) (LC3B): failure
- inhibitory activity for p-EphB4 compared to NVP (EphB4; four hours treatment): comparable or only slightly reduced inhibitory activity
- colorectal cancer cell death by flow cytometry (DRAQ5/PI) [3]: no or minimal colorectal cancer cell death
- inhibitory activity for p-EphA2 compared to NVP (EphA2 [1]; four hours treatment): comparable or only slightly reduced inhibitory activity
- cleaved caspase-3 detection in treated cells (SW620 cells): only in a minority of cells
- inhibitory activity for p-EphB2 compared to NVP (EphB2; four hours treatment): comparable or only slightly reduced inhibitory activity
- Kd (EphA2 [2]): 3 nM
- distribution of cells within the cell cycle (SW620): marked reduction of the proportion of cells within the G2M phase
